Where “and” joins values, the source holds several entries; their conditions need not be identical. Identical values can stand only once.
These compounds were tested on Phakopsora pachyrhizi (assay: Test A: preventive spray on soybean seedlings, Asian soybean rust, visual disease rating). Conditions: rate 10 ppm.
Type: in vivo
From the text: General protocol for preparing test suspensions for Test A: the test compounds were first dissolved in acetone in an amount equal to 3% of the final volume and then suspended at the desired concentration (in ppm) in acetone and purified water (50/50 mix by volume) containing 250 ppm of the surfactant PEG400 (polyhydric alcohol esters). The resulting test suspensions were then used in Test A.
The test solution was sprayed to the point of run-off on soybean seedlings. The following day the seedlings were inoculated with a spore suspension of Phakopsora pachyrhizi (the causal agent of Asian soybean rust) and incubated in a saturated atmosphere at 22° C. for 24 h and then moved to a growth chamber at 22° C. for 8 days, after which time visual disease ratings were made.
A rating of 100 indicates 100% disease control and a rating of 0 indicates no disease control (relative to the controls).

| SMILES | Test A rating (100 = 100% disease control, 0 = no disease control relative to the controls) |
| --- | --- |
| CCO/C(=C\Oc1ccc(Cn2cccc(C(=O)NOCC3CC3)c2=O)cc1)C(F)(F)F [compound 104] | 100% |
| CCO/C(=C\Oc1ccc(Cn2cc(C(=O)NOCCO)cn2)cc1)C(F)(F)F [compound 67] | 100% |
| CCO/C(=C\Oc1ccc(Cn2cc(C(=O)NOCC3CC3)cn2)c(F)c1F)C(F)(F)F [Compound 80] | 100% |
| CCO/C(=C\Oc1ccc(Cn2cc(CON(C(C)=O)C(C)=O)cn2)cc1)C(F)(F)F [compound 20] | 79% |
| CCO/C(=C\Oc1ccc(Cn2cc(COC(=O)C3CC3)cn2)cc1)C(F)(F)F [compound 51] | 100% |
| CCO/C(=C\Oc1ccc(Cn2cc(COC3CCC3)cn2)cc1)C(F)(F)F [compound 59] | 100% |
| C=CCON=C(OCCCC)c1cnn(Cc2ccc(O/C=C(\OCC)C(F)(F)F)cc2)c1 [compound 42] | 96% |
| CCO/C(=C\Oc1ccc(Cn2cc(COCC3(C)CC3)cn2)cc1)C(F)(F)F [compound 57] | 100% |
| CCO/C(=C\Oc1ccc(Cn2cccc(C(=O)N(C)OCCOC)c2=O)cc1)C(F)(F)F [compound 101] | 94% |
| CCO/C(=C\Oc1ccc(Cc2ccnc(C(=O)NOCC(F)(F)F)c2)cc1)C(F)(F)F [Compound 133, 4-[[4-1[[(1Z)-2-ethoxy-3,3,3-trifluoro-1-propen-1-yl]oxy]phenyl]methyl]-N-(2,2,2-trifluoroethoxy)-2-pyridinecarboxamide] | 100% |
| CCO/C(=C\Oc1ccc(Cn2cc(C(=O)NOCC3CC3)cn2)cc1)C(F)(F)F [compound 25] | 100% |
| CCO/C(=C\Oc1ccc(Cn2cc(COC(=O)C(F)(F)Cl)cn2)cc1)C(F)(F)F [compound 19] | 100% |
| C#CCON(C)C(=O)c1cccn(Cc2ccc(O/C=C(\OCC)C(F)(F)F)cc2)c1=O [compound 99] | 92% |
| CCOC(=O)OCc1cnn(Cc2ccc(OCC3(C(F)(F)F)OCCO3)cc2)c1 [Compound 85] | 86% |
| CCO/C(=C\Oc1ccc(Cn2cc(C(=O)NOCC(F)(F)F)cn2)c(F)c1F)C(F)(F)F [Compound 79] | 100% |
| C#CCOCc1cn(Cc2ccc(O/C=C(\OCC)C(F)(F)F)cc2)nn1 [Compound 38] | 78% and 88% |
| CCO/C(=C\Oc1ccc(Cn2cc(COC(=O)CC)cn2)c(F)c1)C(F)(F)F [Compound 77] | 100% |
| CCO/C(=C\Oc1ccc(Cn2cc(C(N)=NO)cn2)cc1)C(F)(F)F [compound 56] | 84% |
| CCO/C(=C\Oc1ccc(Cn2cc(C(=O)NOCC#N)cn2)c(F)c1F)C(F)(F)F [Compound 78] | 100% |
| C=CCOC(=O)Cc1cnn(Cc2ccc(O/C=C(\OCC)C(F)(F)F)cc2)c1 [compound 14] | 96% |
| CCO/C(=C\Oc1ccc(Cn2cc(COC(=O)C(C)(C)C)cn2)c(F)c1)C(F)(F)F [Compound 73] | 100% |
| CCO/C(=C\Oc1ccc(Cn2cc(COC(=O)COC)cn2)c(F)c1F)C(F)(F)F [Compound 74] | 100% |
| C#CCC(=O)OCc1cnn(Cc2ccc(O/C=C(\OCC)C(F)(F)F)cc2)c1 [compound 44] | 100% |
| CCO/C(=C\Oc1ccc(Cn2cc(COCC3CCCC3)cn2)cc1)C(F)(F)F [compound 63] | 100% |
| C=CCON(CC)C(=O)c1cnn(Cc2ccc(O/C=C(\OCC)C(F)(F)F)cc2)c1 [compound 41] | 94% |
| CCO/C(=C\Oc1ccc(Cn2cc(COC(=O)CC#N)nn2)cc1)C(F)(F)F [Compound 9] | 0% |
| CCO/C(=C\Oc1ccc(Cn2cc(COC(=O)OC)cn2)cc1)C(F)(F)F [Compound 52, 1-[[4-[[(1Z)-2-ethoxy-3,3,3-trifluoro-1-propen-1-yl]oxy]phenyl]methyl]-1H-pyrazol-4-yl]methyl methyl carbonate] | 100% |
| CCO/C(=C\Oc1ccc(Cn2cc(COC(=O)CCC(=O)OC)cn2)cc1)C(F)(F)F [compound 26] | 100% |

Same assay, conditions: rate 10 ppm, read-out: Test A rating (100 = 100% disease control, 0 = no disease control relative to the controls)

| SMILES | pest or weed control at 10 ppm [%] |
| --- | --- |
| C=CCONC(=O)c1cc(Cc2ccc(OCC3(C(F)(F)F)OCCO3)cc2)ccn1 [compound 129] | 98 |
| CCO/C(=C\Oc1ccc(Cc2cccc(C(=O)NOCc3ccccc3)n2)cc1)C(F)(F)F [compound 126] | 99 |
| CCO/C(=C\Oc1ccc(Cn2cc(COC(=O)CCSC)cn2)cc1)C(F)(F)F [Compound 50, [1-[[4-[[(1Z)-2-ethoxy-3,3,3-trifluoro-1-propen-1-yl]oxy]phenyl]methyl]-1H-pyrazol-4-yl]methyl 3-(methylthio)propanoate] | 100 |
| CCO/C(=C\Oc1ccc(Cc2cccc(C(=O)N(C)OCC(F)(F)F)n2)cc1)C(F)(F)F [Compound 120, 2-[[4-[[(1Z)-2-ethoxy-3,3,3-trifluoro-1-propen-1-yl]oxy]phenyl]methyl]-N-(2,2,2-trifluoroethoxy)-N-methyl-6-pyridinecarboxamide] | 100 |
| CCO/C(=C\Oc1ccc(Cc2cccc(C(=O)NOCC3CC3)n2)cc1)C(F)(F)F [Compound 124, 2-[[4-[[(1Z)-2-ethoxy-3,3,3-trifluoro-1-propen-1-yl]oxy]phenyl]methyl]-N-(cyclopropylmethoxy)-6-pyridinecarboxamide] | 100 |
| CCO/C(=C\Oc1ccc(Cn2cc(COC(=O)COC)cn2)cc1)C(F)(F)F [Compound 23, [1-[[4-[[(1Z)-2-ethoxy-3,3,3-trifluoro-1-propen-1-yl]oxy]phenyl]methyl]-1H-pyrazol-4-yl]methyl 2-methoxyacetate] | 100 |
| C#CCO/N=C(\OC)c1cccc(Cc2ccc(O/C=C(\OCC)C(F)(F)F)cc2)n1 [compound 134] | 99 |
| C#CCON(C)C(=O)c1cccc(Cc2ccc(O/C=C(\OCC)C(F)(F)F)cc2)n1 [Compound 121, 2-[[4-[[(1Z)-2-ethoxy-3,3,3-trifluoro-1-propen-1-yl]oxy]phenyl]methyl]-N-methyl-N-(2-propyn-1-yloxy)-6-pyridinecarboxamide] | 100 |
| C=CCON(CC)C(=O)c1cc(Cc2ccc(O/C=C(\OCC)C(F)(F)F)cc2)ccn1 [Compound 119, 4-[[4-[[(1Z)-2-ethoxy-3,3,3-trifluoro-1-propen-1-yl]oxy]phenyl]methyl]-N-ethyl-N-(2-propen-1-yloxy)-2-pyridinecarboxamide] | 100 |
| CCO/C(=C\Oc1ccc(Cn2cc(COC(C)=O)cn2)cc1)C(F)(F)F [Compound 22, [1-[[4-[[(1Z)-2-ethoxy-3,3,3-trifluoro-1-propen-1-yl]oxy]phenyl]methyl]-1H-pyrazol-4-yl]methyl acetate] | 100 |
| CCO/C(=C\Oc1ccc(Cc2nc(C(=O)NOCC3CC3)cs2)cc1)C(F)(F)F [compound 116] | 100 |
| CCOC(=O)C(OC(C)=O)c1cnn(Cc2ccc(O/C=C(\OCC)C(F)(F)F)cc2)c1 (stereo not drawn) [Compound 54, ethyl α-(acetyloxy)-1-[[4-[[(1Z)-2-ethoxy-3,3,3-trifluoro-1-propen-1-yl]oxy]phenyl]methyl]-1H-pyrazole-4-acetate] | 100 |
| CCO/C(=C\Oc1ccc(Cc2cccc(C(=O)N(C)OCc3ccccc3)n2)cc1)C(F)(F)F [compound 122] | 100 |
| C=CCON=C(OCC)c1cnn(Cc2ccc(O/C=C(\OCC)C(F)(F)F)cc2)c1 [Compound 40, ethyl 1-[[4-[[(1Z)-2-ethoxy-3,3,3-trifluoro-1-propen-1-yl]oxy]phenyl]methyl]-N-(2-propen-1-yloxy)-1H-pyrazole-4-carboximidate] | 100 |

Same assay, conditions: rate 50 ppm

| SMILES | Test A rating (100 = 100% disease control, 0 = no disease control relative to the controls) [%] |
| --- | --- |
| C=CCC(=O)OCc1cnn(Cc2ccc(OCC3(C(F)(F)F)OCCO3)cc2)c1 [Compound 89] | 100 |
| COCC(=O)OCc1cnn(Cc2ccc(OCC3(C(F)(F)F)OCCO3)cc2)c1 [Compound 86] | 100 |
| CCO/C(=C\Oc1ccc(Cn2cc(COC(=O)N(C)C)cn2)cc1)C(F)(F)F [compound 8] | 60 |
| O=C(CC1CC1)OCc1cnn(Cc2ccc(OCC3(C(F)(F)F)OCCO3)cc2)c1 [Compound 88] | 100 |
| COCCC(=O)OCc1cnn(Cc2ccc(OCC3(C(F)(F)F)OCCO3)cc2)c1 [Compound 87] | 100 |
| O=C(CC(F)(F)F)OCc1cnn(Cc2ccc(OCC3(C(F)(F)F)OCCO3)cc2)c1 [Compound 93] | 100 |

Same assay, conditions: rate 250 ppm, read-out: Test A rating (100 = 100% disease control, 0 = no disease control relative to the controls)

| SMILES | pest or weed control at 250 ppm [%] |
| --- | --- |
| C=CCON(CC)C(=O)c1cccc(Cc2ccc(O/C=C(\OCC)C(F)(F)F)cc2)c1 [compound 128] | 100 |

From patent US20250089717A1, “FUNGICIDAL HALOMETHYL KETONES, HYDRATES AND ENOL ETHERS AND THEIR MIXTURES” (FMC CORPORATION, priority 2023, published 2025)
